Assays:
[1] = plasma trough level of itraconazole required for clinical benefit in humans with cancer; type: in vivo, human
Protocol: In particular, the minimum plasma trough level after 4 weeks of therapy required to have a clinically significant effect was at least 1000 ng/ml. Achieving these levels of itraconazole is enhanced by the use of formulations with greater bioavailability such as SUBA-CAP™ formulation. […] These side effects associated with these high doses of itraconazole can be effectively managed by giving a selective mineralocorticoid antagonist, such as eplerenone. Accordingly, in some embodiments, the method further comprises administering eplerenone or other mineralocorticoid inhibitor.

[2] = tested on: HhP; settings: major metabolite of itraconazole; cited from earlier work

concentration at 4 weeks ([1]; human, plasma, after 4 weeks of therapy, humans with cancer, read-out: minimum plasma trough level required to have a clinically significant effect) | Compound | side-effects peculiar to high doses ([1]; high doses of itraconazole) | potency as a HhP inhibitor relative to itraconazole [2]
≥ 1000 ng/mL | CCC(C)n1ncn(-c2ccc(N3CCN(c4ccc(OCC5COC(Cn6cncn6)(c6ccc(Cl)cc6Cl)O5)cc4)CC3)cc2)c1=O (stereo not drawn) [itraconazole] | hypertension, peripheral edema, and hypokalemia | 
 | hydroxy-itraconazole |  | not equipotent

From patent publication US10363252B2, “Treatment of prostate cancer using hedgehog pathway inhibitors” (HEDGEPATH PHARMACEUTICALS, INC., priority 2013, dated 2019)
